In patent publication US9925168B2, “Preparation of micronized particles of an antimuscarinic compound by hydrodynamic cavitation” (CHIESI FARMACEUTICI S.P.A., priority 2016, dated 2018):

Experiments:
[1] = Particle size by laser light diffraction (Sympatec Dry Dispersion Size Analyzer); assay type: physicochemical; parameters: d[v,10] / d[v,50] / d[v,90]: unit not given here; settings: for Span: Span=[d(v,0.9)-d(v,0.1)]/d(v,0.5); for d[v,10] / d[v,50] / d[v,90]: average of triplicate
Procedure: The particle size was determined by Laser light diffraction using the Sympatec Dry Dispersion Size Analyzer (Clausthal-Zellerfeld, Germany).
The powder was dispersed for two measurement conditions at an air pressure of 1 and 4 bar.
The average d[v,10], d[v,50], d[v,90] values were calculated from triplicate measurements. The span was calculated using the following equation: Span=[d(v,0.9)−d(v,0.1)]/d(v,0.5)

[2] = Physical stability (particle size growth) upon storage; assay type: physicochemical; settings: at least three months, ambient conditions (22±2° C. and 60% relative humidity)
Source text: The physical stability shall be measured by using a Sympatec Dry Dispersion Size Analyzer, while the chemical stability shall be determined according to known method such as HPLC.

SMILES: C[N+]1(C)CCC(OC(=O)C(O)(c2ccccc2)C2CCCC2)C1.[Br-] (racemic) [Example 1, (3S,2′R), (3R,2′S)-3-[(Cyclopentylhydroxyphenylacetyl)oxy]-1,1-dimethylpyrrolidinium bromide racemic mixture]
- Span ([1]; dispersion pressure 1.0 bar): 1.50
- d[v,10] ([1]; dispersion pressure 1.0 bar): 0.81
- d[v,50] ([1]; dispersion pressure 1.0 bar): 4.17
- d[v,90] ([1]; dispersion pressure 1.0 bar): 7.05
- Span ([1]; dispersion pressure 4.0 bar): 2.19
- d[v,10] ([1]; dispersion pressure 4.0 bar): 0.43
- d[v,50] ([1]; dispersion pressure 4.0 bar): 2.29
- d[v,90] ([1]; dispersion pressure 4.0 bar): 5.45
- growth of the particle size upon storage [2]: No significant growth of the particle size
